Values of other authors, collected in patent US20140271903A1, “USE OF THERMO-SENSITIVE GEL FOR CONTROLLED DELIVERY OF ALK-5 INHIBITORS TO THE EYE AND RELATED METHODS” (NORTHEAST OHIO MEDICAL UNIVERSITY, priority 2013, published 2014).

Columns and labels:
[1] = test system: rabbit subconjunctival fibroblasts
[2] = test system: rabbit subconjunctival fibroblasts; settings: cultured rabbit subconjunctival fibroblasts

Row | SMILES | bleb survival period compared to MMC (in vivo rabbit GFS model; in vivo rabbit GFS model) | period of filtering bleb survival (in vivo rabbit GFS model; in vivo rabbit GFS model) | toxicity in GFS compared to MMC (in vivo rabbit GFS model; rabbit, in vivo) | cytotoxicity and cell death versus antimetabolites (5-FU, MMC) [1] | downstream proteins of TGF-β: CTGF and a-SMA [2] | bleb survival (in vivo rabbit GFS model; recent rabbit studies, post-operative scarring after GFS)
1 | Cc1cccc(-c2[nH]c(C(C)(C)C)nc2-c2ccc3c(c2)OCO3)n1 [SB-505124] | substantially shorter compared to MMC | extended the period of filtering bleb survival | substantially lower than that of MMC | less cytotoxic and causing less cell death than antimetabolites | marked reduction | 
2 | CO[C@@]12[C@H](COC(N)=O)C3=C(C(=O)C(C)=C(N)C3=O)N1C[C@@H]1N[C@@H]12 [MMC, mitomycin-C] |  |  |  |  |  | around 30 days
